According to ChEMBL document CHEMBL2169878 (J Med Chem, 2012):
The source made the active and inactive calls. The rule behind the calls is not given here.

How the values were obtained:
Salmonella typhimurium [1] = test: Mutagenicity against Salmonella typhimurium TA100 assessed as revertants at 1.5 uM incubated for 90 mins followed by drug washout measured after 2 days relative to positive control; format: toxicity, organism-based; settings: salmonella enterica subsp. enterica serovar typhimurium, 1.5 h
Salmonella typhimurium [2] = test: Mutagenicity against Salmonella typhimurium TA100 assessed as revertants at 1 uM incubated for 90 mins followed by drug washout measured after 2 days relative to positive control; format: toxicity, organism-based; settings: salmonella enterica subsp. enterica serovar typhimurium, 1.5 h
Salmonella typhimurium [3] = test: Mutagenicity against Salmonella typhimurium TA98 assessed as revertants at 17 uM incubated for 90 mins followed by drug washout measured after 2 days relative to positive control; format: toxicity, organism-based; settings: salmonella enterica subsp. enterica serovar typhimurium
[4] = biological target: Chloroquine resistance transporter (Plasmodium falciparum, UniProt Q9N623); test: Inhibition of chloroquine-resistant Plasmodium falciparum Dd2 CRT expressed in Xenopus laevis oocyte assessed as inhibition of [3H]chloroquine uptake measured from 1 to 2 hrs
Plasmodium berghei [5] = test: Antimalarial activity against Plasmodium berghei ANKA expressing GFP infected in mouse assessed as cure from infection at 30 mg/kg, po administered 24 hrs post-infection measured on day 30; format: functional, organism-based; set-up: dose 30 mg/kg
Plasmodium berghei [6] = test: Antimalarial activity against Plasmodium berghei ANKA expressing GFP infected in mouse assessed as mean survival days at 30 mg/kg, po administered QD for 3 days (reference value: 6 to 7 days); format: functional
[7] = Cytotoxicity against human HepG2 cells after 24 hrs by neutral red dye uptake assay; format: cell-based; settings: read-out: TC50
Plasmodium falciparum [8] = test: Resistance ratio of IC50 for chloroquine-resistant Plasmodium falciparum W2 to IC50 for chloroquine-sensitive Plasmodium falciparum D10; format: functional
Plasmodium falciparum [9] = test: Antiplasmodial activity against chloroquine-sensitive Plasmodium falciparum NF54 infected in human erythrocytes assessed as inhibition of [3H]hypoxanthine incorporation incubated for 48 hrs prior to [3H]hypoxanthine addition measured after 48 hrs by liquid scintillation counting; format: functional, organism-based
[10] = biological target: T1, Chloroquine resistance transporter (Plasmodium falciparum) (UniProt Q9N623); test: Inhibition of chloroquine-sensitive Plasmodium falciparum D10 CRT expressed in Xenopus laevis oocyte assessed as inhibition of [3H]chloroquine uptake at 100 uM measured from 1 to 2 hrs
T1 sequence (whole entry): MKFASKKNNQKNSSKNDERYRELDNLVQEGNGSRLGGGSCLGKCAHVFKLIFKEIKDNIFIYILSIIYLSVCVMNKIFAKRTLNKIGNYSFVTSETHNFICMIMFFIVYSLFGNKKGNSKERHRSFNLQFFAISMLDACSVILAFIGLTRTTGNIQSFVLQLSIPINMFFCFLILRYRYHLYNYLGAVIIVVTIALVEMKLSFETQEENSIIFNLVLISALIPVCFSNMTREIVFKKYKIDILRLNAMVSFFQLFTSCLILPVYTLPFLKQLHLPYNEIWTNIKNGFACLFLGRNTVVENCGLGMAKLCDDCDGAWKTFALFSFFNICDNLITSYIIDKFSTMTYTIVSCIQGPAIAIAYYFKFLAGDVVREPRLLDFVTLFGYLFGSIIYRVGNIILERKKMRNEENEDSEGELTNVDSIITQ

Plasmodium berghei [11] = test: Antimalarial activity against Plasmodium berghei ANKA expressing GFP infected in mouse assessed as cure from infection at 30 mg/kg, po administered at 6,24,48 and 72 hrs post-infection measured on day 30; format: functional, organism-based; set-up: dose 30 mg/kg
Plasmodium berghei [12] = test: Antimalarial activity against Plasmodium berghei ANKA expressing GFP infected in mouse assessed as mean survival days at 30 mg/kg, po administered at 6,[…],[…] and 72 hrs post-infection (reference value: 6 to 7 days); format: functional
Plasmodium berghei [13] = test: Antimalarial activity against Plasmodium berghei ANKA expressing GFP infected in mouse assessed as cure from infection at 50 mg/kg, po administered QD for 3 days measured on day 30; format: functional, organism-based; set-up: dose 50 mg/kg
Plasmodium falciparum [14] = test: Antiplasmodial activity against chloroquine-resistant Plasmodium falciparum W2 infected in human RBC after 72 hrs by parasite lactate dehydrogenase assay; format: functional, organism-based; settings: W2, 72 h
Plasmodium berghei [15] = test: Antimalarial activity against Plasmodium berghei ANKA expressing GFP infected in mouse assessed as mean survival days at 30 mg/kg, po administered 24 hrs post-infection (reference value: 6 to 7 days); format: functional
Plasmodium berghei [16] = test: Antimalarial activity against Plasmodium berghei ANKA expressing GFP infected in mouse assessed as reduction in parasitemia at 50 mg/kg, po administered QD for 3 days measured 24 hrs post-final dosing by flow cytometric analysis; format: functional; set-up: scale not given: the % may be the effect or the level left
Plasmodium berghei [17] = test: Antimalarial activity against Plasmodium berghei ANKA expressing GFP infected in mouse assessed as reduction in parasitemia at 30 mg/kg, po administered 24 hrs post-infection measured 48 hrs post-dosing by flow cytometric analysis; format: functional; set-up: scale not given: the % may be the effect or the level left
Plasmodium falciparum [18] = test: Antiplasmodial activity against chloroquine-resistant Plasmodium falciparum K1 infected in human erythrocytes assessed as inhibition of [3H]hypoxanthine incorporation incubated for 48 hrs prior to [3H]hypoxanthine addition measured after 48 hrs by liquid scintillation counting; format: functional, organism-based
Salmonella typhimurium [19] = test: Mutagenicity against Salmonella typhimurium TA100 assessed as revertants at 34 uM incubated for 90 mins followed by drug washout measured after 2 days relative to positive control; format: toxicity, organism-based; settings: salmonella enterica subsp. enterica serovar typhimurium
Plasmodium berghei [20] = test: Antimalarial activity against Plasmodium berghei ANKA expressing GFP infected in mouse assessed as cure from infection at 30 mg/kg, po administered QD for 3 days measured on day 30; format: functional, organism-based; set-up: dose 30 mg/kg
Plasmodium berghei [21] = test: Antimalarial activity against Plasmodium berghei ANKA expressing GFP infected in mouse assessed as reduction in parasitemia at 100 mg/kg, po administered 24 hrs post-infection measured 48 hrs post-dosing by flow cytometric analysis; format: functional; set-up: scale not given: the % may be the effect or the level left
Salmonella typhimurium [22] = test: Mutagenicity against Salmonella typhimurium TA98 assessed as revertants at 4 uM incubated for 90 mins followed by drug washout measured after 2 days relative to positive control; format: toxicity, organism-based; settings: salmonella enterica subsp. enterica serovar typhimurium
Salmonella typhimurium [23] = test: Mutagenicity against Salmonella typhimurium TA100 assessed as revertants at 8 uM incubated for 90 mins followed by drug washout measured after 2 days relative to positive control; format: toxicity, organism-based; settings: salmonella enterica subsp. enterica serovar typhimurium
Plasmodium berghei [24] = test: Antimalarial activity against Plasmodium berghei ANKA expressing GFP infected in mouse assessed as mean survival days at 50 mg/kg, po administered QD for 3 days (reference value: 6 to 7 days); format: functional
Salmonella typhimurium [25] = test: Mutagenicity against Salmonella typhimurium TA100 assessed as revertants at 3 uM incubated for 90 mins followed by drug washout measured after 2 days relative to positive control; format: toxicity, organism-based; settings: salmonella enterica subsp. enterica serovar typhimurium, 1.5 h
Plasmodium berghei [26] = test: Antimalarial activity against Plasmodium berghei ANKA expressing GFP infected in mouse assessed as mean survival days at 100 mg/kg, po administered 24 hrs post-infection (reference value: 6 to 7 days); format: functional
Salmonella typhimurium [27] = test: Mutagenicity against Salmonella typhimurium TA98 assessed as revertants at 8 uM incubated for 90 mins followed by drug washout measured after 2 days relative to positive control; format: toxicity, organism-based; settings: salmonella enterica subsp. enterica serovar typhimurium, 1.5 h
Plasmodium berghei [28] = test: Antimalarial activity against Plasmodium berghei ANKA expressing GFP infected in mouse assessed as reduction in parasitemia at 30 mg/kg, po administered at 6,24,48 and 72 hrs post-infection measured 24 hrs post-final dosing by flow cytometric analysis; format: functional; set-up: scale not given: the % may be the effect or the level left
Plasmodium falciparum [29] = test: Resistance ratio of IC50 for chloroquine-resistant Plasmodium falciparum K1 to IC50 for chloroquine-sensitive Plasmodium falciparum NF54; format: functional
Salmonella typhimurium [30] = test: Mutagenicity against Salmonella typhimurium TA98 assessed as revertants at 2 uM incubated for 90 mins followed by drug washout measured after 2 days relative to positive control; format: toxicity, organism-based; settings: salmonella enterica subsp. enterica serovar typhimurium, 1.5 h
[31] = biological target: T1, Chloroquine resistance transporter (Plasmodium falciparum); test: Inhibition of chloroquine-resistant Plasmodium falciparum Dd2 CRT expressed in Xenopus laevis oocyte assessed as inhibition of [3H]chloroquine uptake at 100 uM measured from 1 to 2 hrs
Plasmodium berghei [32] = test: Antimalarial activity against Plasmodium berghei ANKA expressing GFP infected in mouse assessed as reduction in parasitemia at 30 mg/kg, po administered QD for 3 days measured 24 hrs post-final dosing by flow cytometric analysis; format: functional; set-up: scale not given: the % may be the effect or the level left
Plasmodium berghei [33] = test: Antimalarial activity against Plasmodium berghei ANKA expressing GFP infected in mouse assessed as cure from infection at 100 mg/kg, po administered 24 hrs post-infection measured on day 30; format: functional, organism-based; set-up: dose 100 mg/kg
Salmonella typhimurium [34] = test: Mutagenicity against Salmonella typhimurium TA98 assessed as revertants at 1 uM incubated for 90 mins followed by drug washout measured after 2 days relative to positive control; format: toxicity, organism-based; settings: salmonella enterica subsp. enterica serovar typhimurium
Salmonella typhimurium [35] = test: Mutagenicity against Salmonella typhimurium TA100 assessed as revertants at 17 uM incubated for 90 mins followed by drug washout measured after 2 days relative to positive control; format: toxicity, organism-based; settings: salmonella enterica subsp. enterica serovar typhimurium
[36] = Cytotoxicity against mouse NIH3T3 cells after 24 hrs by neutral red dye uptake assay; format: cell-based; settings: read-out: TC50
Plasmodium falciparum [37] = test: Antiplasmodial activity against chloroquine-sensitive Plasmodium falciparum D10 infected in human RBC after 72 hrs by parasite lactate dehydrogenase assay; format: functional, organism-based; settings: D10, 72 h
Salmonella typhimurium [38] = test: Mutagenicity against Salmonella typhimurium TA98 assessed as revertants at 34 uM incubated for 90 mins followed by drug washout measured after 2 days relative to positive control; format: toxicity, organism-based; settings: salmonella enterica subsp. enterica serovar typhimurium, 1.5 h

Clc1cccc(C(Nc2ccnc3cc(Cl)ccc23)c2ccc(CN3CCNCC3)cc2)c1 (racemic)
Activity (Salmonella typhimurium [1]): 5%
Activity (Salmonella typhimurium [2]): 6%
Activity (Salmonella typhimurium [3]): 11%
IC50 [4]: 10500 nM
Activity (Plasmodium berghei [5]): inactive
MSD (Plasmodium berghei [6]): 30 days
CC50 at 24 h [7]: < 4000 nM
Ratio IC50 (Plasmodium falciparum [8]): 1.4
IC50 (Plasmodium falciparum [9]): 19 nM
inhibition [10]: inactive
Activity (Plasmodium berghei [11]): Active
MSD (Plasmodium berghei [12]): 30 days
Activity (Plasmodium berghei [13]): inactive
IC50 (Plasmodium falciparum [14]): 33 nM
MSD (Plasmodium berghei [15]): 24 days
Activity (Plasmodium berghei [16]): 99.8%
Activity (Plasmodium berghei [17]): 99.7%
IC50 (Plasmodium falciparum [18]): 23 nM
Activity (Salmonella typhimurium [19]): 2%
Activity (Plasmodium berghei [20]): Active
Activity (Plasmodium berghei [21]): 99.6%
Activity (Salmonella typhimurium [22]): 4%
Activity (Salmonella typhimurium [23]): 5%
MSD (Plasmodium berghei [24]): 30 days
Activity (Salmonella typhimurium [25]): 3%
MSD (Plasmodium berghei [26]): 29.6 days
Activity (Salmonella typhimurium [27]): 16%
Activity (Plasmodium berghei [28]): 99.9%
Ratio IC50 (Plasmodium falciparum [29]): 1.2
Activity (Salmonella typhimurium [30]): 7%
inhibition [31]: Active
Activity (Plasmodium berghei [32]): 99.8%
Activity (Plasmodium berghei [33]): Active
Activity (Salmonella typhimurium [34]): 9%
Activity (Salmonella typhimurium [35]): 7%
CC50 at 24 h [36]: 16000 nM
IC50 (Plasmodium falciparum [37]): 25 nM
Activity (Salmonella typhimurium [38]): 4%
